Source: ChEMBL document CHEMBL1201862, “PubChem BioAssay data set” (2004)
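Protocol summary: plate cells (96-well), add compound at 5 concentrations, incubate 48 h, interpolate endpoints linearly. GI50 is the concentration that inhibits growth by half.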 Calls of active or inactive are those of the source. Rule as the data show it: active = GI50 up to about 1.1 µM and inactive = higher.

What was measured:
Assay in all cases: inhibition of tumour cell growth, NCI panel, 48 h
[1] = tested on: A498
[2] = tested on: A549
[3] = tested on: ACHN
[4] = tested on: CAKI-1
[5] = tested on: CCRF-CEM
[6] = tested on: COLO 205
[7] = tested on: DLD-1
[8] = tested on: DMS-114
[9] = tested on: DMS-273
[10] = tested on: EKVX
[11] = tested on: HCC 2998
[12] = tested on: HCT-116
[13] = tested on: HCT-15
[14] = tested on: HL-60
[15] = tested on: HOP-62
[16] = tested on: HOP-92
[17] = tested on: HT-29
[18] = tested on: IGROV-1
[19] = tested on: K562
[20] = tested on: KM-20L2
[21] = tested on: KM12
[22] = tested on: LXFL 529
[23] = tested on: M14
[24] = tested on: M19-MEL
[25] = tested on: MOLT-4
[26] = tested on: Malme-3M
[27] = tested on: NCI-H23
[28] = tested on: NCI-H460
[29] = tested on: NCI-H522
[30] = tested on: OVCAR-3
[31] = tested on: OVCAR-4
[32] = tested on: OVCAR-5
[33] = tested on: OVCAR-8
[34] = tested on: RPMI-8226
[35] = tested on: RXF 393
[36] = tested on: SF-268
[37] = tested on: SF-295
[38] = tested on: SF-539
[39] = tested on: SK-MEL-28
[40] = tested on: SK-MEL-2
[41] = tested on: SK-MEL-5
[42] = tested on: SK-OV-3
[43] = tested on: SN12C
[44] = tested on: SNB-19
[45] = tested on: SNB-75
[46] = tested on: SNB-78
[47] = tested on: SR
[48] = tested on: SW-620
[49] = tested on: TK-10
[50] = tested on: U-251
[51] = tested on: UACC-257
[52] = tested on: UACC-62
[53] = tested on: UO-31
[54] = tested on: XF498
[55] = tested on: 786-0
[56] = tested on: HOP-18
[57] = tested on: LOX IMVI
[58] = tested on: NCI-H226

## C=CCN1/C(=C(\C#N)c2nc3ccccc3[nH]2)Sc2c1nc[nH]c2=O
[1]
  GI50: > 100 µM (inactive)
[2]
  GI50: > 100 µM (inactive)
[3]
  GI50: > 100 µM (inactive)
[4]
  GI50: > 100 µM (inactive)
[5]
  GI50: > 100 µM (inactive)
[6]
  GI50: > 100 µM (inactive)
[7]
  GI50: > 100 µM (inactive)
[8]
  GI50: > 100 µM (inactive)
[9]
  GI50: > 100 µM (inactive)
[10]
  GI50: > 100 µM (inactive)
[11]
  GI50: > 100 µM (inactive)
[12]
  GI50: > 100 µM (inactive)
[13]
  GI50: > 100 µM
[14]
  GI50: > 100 µM (inactive)
[15]
  GI50: > 100 µM (inactive)
[16]
  GI50: > 100 µM (inactive)
[17]
  GI50: > 100 µM (inactive)
[18]
  GI50: > 100 µM (inactive)
[19]
  GI50: > 100 µM (inactive)
[20]
  GI50: > 100 µM (inactive)
[21]
  GI50: > 100 µM (inactive)
[22]
  GI50: > 100 µM (inactive)
[23]
  GI50: > 100 µM (inactive)
[24]
  GI50: > 100 µM (inactive)
[25]
  GI50: > 100 µM (inactive)
[26]
  GI50: > 100 µM (inactive)
[27]
  GI50: > 100 µM (inactive)
[28]
  GI50: > 100 µM (inactive)
[29]
  GI50: > 100 µM (inactive)
[30]
  GI50: > 100 µM (inactive)
[31]
  GI50: > 100 µM (inactive)
[32]
  GI50: > 100 µM (inactive)
[33]
  GI50: > 100 µM (inactive)
[34]
  GI50: > 100 µM (inactive)
[35]
  GI50: 6.68 µM (inactive)
[36]
  GI50: > 100 µM (inactive)
[37]
  GI50: > 100 µM (inactive)
[38]
  GI50: > 100 µM (inactive)
[39]
  GI50: > 100 µM (inactive)
[40]
  GI50: > 100 µM (inactive)
[41]
  GI50: > 100 µM (inactive)
[42]
  GI50: > 100 µM (inactive)
[43]
  GI50: > 100 µM (inactive)
[44]
  GI50: > 100 µM (inactive)
[45]
  GI50: 31.4 µM (inactive)
[46]
  GI50: > 100 µM (inactive)
[47]
  GI50: > 100 µM (inactive)
[48]
  GI50: > 100 µM (inactive)
[49]
  GI50: > 100 µM (inactive)
[50]
  GI50: 80.5 µM (inactive)
[51]
  GI50: > 100 µM (inactive)
[52]
  GI50: > 100 µM (inactive)
[53]
  GI50: > 100 µM (inactive)
[54]
  GI50: > 100 µM (inactive)

## NC(=O)c1csc(C2CCC(CO)O2)n1 (stereo not drawn)
[55]
  GI50: > 100 µM (inactive)
[1]
  GI50: > 100 µM (inactive)
[2]
  GI50: > 100 µM (inactive)
[3]
  GI50: > 100 µM (inactive)
[4]
  GI50: > 100 µM (inactive)
[5]
  GI50: > 100 µM (inactive)
[6]
  GI50: > 100 µM (inactive)
[8]
  GI50: > 100 µM (inactive)
[9]
  GI50: > 100 µM (inactive)
[10]
  GI50: > 100 µM (inactive)
[11]
  GI50: > 100 µM (inactive)
[12]
  GI50: > 100 µM (inactive)
[13]
  GI50: > 100 µM
[14]
  GI50: > 100 µM (inactive)
[56]
  GI50: > 100 µM (inactive)
[15]
  GI50: > 100 µM (inactive)
[16]
  GI50: > 100 µM (inactive)
[17]
  GI50: > 100 µM (inactive)
[18]
  GI50: > 100 µM (inactive)
[19]
  GI50: > 100 µM (inactive)
[20]
  GI50: > 100 µM (inactive)
[21]
  GI50: > 100 µM (inactive)
[57]
  GI50: > 100 µM (inactive)
[22]
  GI50: > 100 µM (inactive)
[23]
  GI50: > 100 µM (inactive)
[24]
  GI50: > 100 µM (inactive)
[25]
  GI50: > 100 µM (inactive)
[26]
  GI50: > 100 µM (inactive)
[58]
  GI50: > 100 µM (inactive)
[27]
  GI50: > 100 µM (inactive)
[28]
  GI50: > 100 µM (inactive)
[29]
  GI50: > 100 µM (inactive)
[30]
  GI50: > 100 µM (inactive)
[31]
  GI50: > 100 µM (inactive)
[32]
  GI50: > 100 µM (inactive)
[33]
  GI50: > 100 µM (inactive)
[34]
  GI50: > 100 µM (inactive)
[36]
  GI50: > 100 µM (inactive)
[37]
  GI50: > 100 µM (inactive)
[38]
  GI50: > 100 µM (inactive)
[39]
  GI50: > 100 µM (inactive)
[40]
  GI50: > 100 µM (inactive)
[42]
  GI50: > 100 µM (inactive)
[43]
  GI50: > 100 µM (inactive)
[44]
  GI50: > 100 µM (inactive)
[46]
  GI50: > 100 µM (inactive)
[48]
  GI50: > 100 µM (inactive)
[49]
  GI50: > 100 µM (inactive)
[50]
  GI50: > 100 µM (inactive)
[51]
  GI50: > 100 µM (inactive)
[52]
  GI50: > 100 µM (inactive)
[53]
  GI50: > 100 µM (inactive)

## COc1cc2c(oc(=O)c3c4oc([Si](C)(C)C)cc4cc(OC)c23)c2cccc(O)c12
[55]
  GI50: > 100 µM (inactive)
[1]
  GI50: > 100 µM (inactive)
[2]
  GI50: > 100 µM (inactive)
[3]
  GI50: > 100 µM (inactive)
[4]
  GI50: > 100 µM (inactive)
[5]
  GI50: > 100 µM (inactive)
[6]
  GI50: > 100 µM (inactive)
[7]
  GI50: > 100 µM (inactive)
[8]
  GI50: > 100 µM (inactive)
[9]
  GI50: > 100 µM (inactive)
[10]
  GI50: > 100 µM (inactive)
[11]
  GI50: > 100 µM (inactive)
[12]
  GI50: > 100 µM (inactive)
[13]
  GI50: > 100 µM
[14]
  GI50: > 100 µM (inactive)
[56]
  GI50: > 100 µM (inactive)
[15]
  GI50: > 100 µM (inactive)
[16]
  GI50: > 100 µM (inactive)
[17]
  GI50: > 100 µM (inactive)
[18]
  GI50: > 100 µM (inactive)
[19]
  GI50: > 100 µM (inactive)
[20]
  GI50: > 100 µM (inactive)
[21]
  GI50: > 100 µM (inactive)
[57]
  GI50: > 100 µM (inactive)
[22]
  GI50: > 100 µM (inactive)
[23]
  GI50: > 100 µM (inactive)
[24]
  GI50: > 100 µM (inactive)
[25]
  GI50: > 100 µM (inactive)
[26]
  GI50: > 100 µM (inactive)
[58]
  GI50: > 100 µM (inactive)
[27]
  GI50: > 100 µM (inactive)
[28]
  GI50: > 100 µM (inactive)
[29]
  GI50: > 100 µM (inactive)
[30]
  GI50: > 100 µM (inactive)
[31]
  GI50: > 100 µM (inactive)
[32]
  GI50: > 100 µM (inactive)
[33]
  GI50: > 100 µM (inactive)
[34]
  GI50: > 100 µM (inactive)
[35]
  GI50: > 100 µM (inactive)
[36]
  GI50: > 100 µM (inactive)
[37]
  GI50: > 100 µM (inactive)
[38]
  GI50: > 100 µM (inactive)
[39]
  GI50: > 100 µM (inactive)
[40]
  GI50: > 100 µM (inactive)
[41]
  GI50: > 100 µM (inactive)
[42]
  GI50: > 100 µM (inactive)
[43]
  GI50: > 100 µM (inactive)
[44]
  GI50: > 100 µM (inactive)
[45]
  GI50: 36.4 µM (inactive)
[47]
  GI50: > 100 µM (inactive)
[48]
  GI50: > 100 µM (inactive)
[49]
  GI50: > 100 µM (inactive)
[50]
  GI50: > 100 µM (inactive)
[51]
  GI50: > 100 µM (inactive)
[52]
  GI50: > 100 µM (inactive)
[53]
  GI50: > 100 µM (inactive)
[54]
  GI50: > 100 µM (inactive)
